Assay results: ChEMBL document CHEMBL1201862, “PubChem BioAssay data set” (2004)
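A five-concentration, 48-hour dose response in 96-well plates underlies each endpoint, interpolated linearly between surrounding concentrations. GI50 = concentration required for 50% inhibition of growth.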 Calls of active or inactive are those of the source. Cut-off read from the data, not from the text of the source: active = GI50 up to about 1.1 µM and inactive = higher.

Experiments:
Assay in all cases: growth of human tumour cells (NCI), 48 h
MDA-N = system: MDA-N
U-251 = system: U-251
SK-MEL-2 = system: SK-MEL-2
NCI-H23 = system: NCI-H23
OVCAR-3 = system: OVCAR-3
NCI-H226 = system: NCI-H226
COLO 205 = system: COLO 205
SK-OV-3 = system: SK-OV-3
LOX IMVI = system: LOX IMVI
CCRF-CEM = system: CCRF-CEM
PC-3 = system: PC-3
HCT-116 = system: HCT-116
NCI-H522 = system: NCI-H522
RPMI-8226 = system: RPMI-8226
Malme-3M = system: Malme-3M
UACC-62 = system: UACC-62
SW-620 = system: SW-620
IGROV-1 = system: IGROV-1
NCI-H460 = system: NCI-H460
MDA-MB-231 = system: MDA-MB-231
ACHN = system: ACHN
MDA-MB-435 = system: MDA-MB-435
EKVX = system: EKVX
M14 = system: M14
K562 = system: K562
SN12C = system: SN12C
RXF 393 = system: RXF 393
KM12 = system: KM12
HT-29 = system: HT-29
HL-60 = system: HL-60
SNB-75 = system: SNB-75
HCC 2998 = system: HCC 2998
786-0 = system: 786-0
OVCAR-8 = system: OVCAR-8
TK-10 = system: TK-10
SF-539 = system: SF-539
BT-549 = system: BT-549
SF-295 = system: SF-295
A498 = system: A498
CAKI-1 = system: CAKI-1
SK-MEL-28 = system: SK-MEL-28
SF-268 = system: SF-268
Hs-578T = system: Hs-578T
HOP-62 = system: HOP-62
NCI/ADR-RES = system: NCI/ADR-RES
DU-145 = system: DU-145
SNB-19 = system: SNB-19
HCT-15 = system: HCT-15
UACC-257 = system: UACC-257
T47D = system: T47D
MCF7 = system: MCF7
MOLT-4 = system: MOLT-4
OVCAR-4 = system: OVCAR-4
OVCAR-5 = system: OVCAR-5
A549 = system: A549
UO-31 = system: UO-31
SR = system: SR
SK-MEL-5 = system: SK-MEL-5

O=c1cc(N2CCOCC2)[nH]c(=O)n1-c1ccc(F)cc1
GI50 (MDA-N): > 100 µM (inactive) | GI50 (U-251): > 100 µM (inactive) | GI50 (SK-MEL-2): > 100 µM (inactive) | GI50 (NCI-H23): > 100 µM (inactive) | GI50 (OVCAR-3): > 100 µM (inactive) | GI50 (NCI-H226): > 100 µM (inactive) | GI50 (COLO 205): > 100 µM (inactive) | GI50 (SK-OV-3): > 100 µM (inactive) | GI50 (LOX IMVI): > 100 µM (inactive) | GI50 (CCRF-CEM): > 100 µM (inactive) | GI50 (PC-3): > 100 µM (inactive) | GI50 (HCT-116): > 100 µM (inactive) | GI50 (NCI-H522): > 100 µM (inactive) | GI50 (RPMI-8226): > 100 µM (inactive) | GI50 (Malme-3M): > 100 µM (inactive) | GI50 (UACC-62): > 100 µM (inactive) | GI50 (SW-620): > 100 µM (inactive) | GI50 (IGROV-1): > 100 µM (inactive) | GI50 (NCI-H460): > 100 µM (inactive) | GI50 (MDA-MB-231): > 100 µM (inactive) | GI50 (ACHN): > 100 µM (inactive) | GI50 (MDA-MB-435): > 100 µM (inactive) | GI50 (EKVX): > 100 µM (inactive) | GI50 (M14): > 100 µM (inactive) | GI50 (K562): > 100 µM (inactive) | GI50 (SN12C): > 100 µM (inactive) | GI50 (RXF 393): > 100 µM (inactive) | GI50 (KM12): > 100 µM (inactive) | GI50 (HT-29): > 100 µM (inactive) | GI50 (HL-60): > 100 µM (inactive) | GI50 (SNB-75): > 100 µM (inactive) | GI50 (HCC 2998): > 100 µM (inactive) | GI50 (786-0): > 100 µM (inactive) | GI50 (OVCAR-8): > 100 µM (inactive) | GI50 (TK-10): > 100 µM (inactive) | GI50 (SF-539): > 100 µM (inactive) | GI50 (BT-549): > 100 µM (inactive) | GI50 (SF-295): > 100 µM (inactive) | GI50 (A498): > 100 µM (inactive) | GI50 (CAKI-1): > 100 µM (inactive) | GI50 (SK-MEL-28): > 100 µM (inactive) | GI50 (SF-268): > 100 µM (inactive) | GI50 (Hs-578T): > 100 µM (inactive) | GI50 (HOP-62): > 100 µM (inactive) | GI50 (NCI/ADR-RES): > 100 µM (inactive) | GI50 (DU-145): > 100 µM (inactive) | GI50 (SNB-19): > 100 µM (inactive) | GI50 (HCT-15): > 100 µM | GI50 (UACC-257): > 100 µM (inactive) | GI50 (T47D): > 100 µM (inactive) | GI50 (MCF7): > 100 µM (inactive) | GI50 (MOLT-4): > 100 µM (inactive) | GI50 (OVCAR-4): > 100 µM (inactive) | GI50 (OVCAR-5): > 100 µM (inactive)

CCOP(=O)(OCC)C(C)(CC)N/C(N)=N/C#N (centres undefined)
GI50 (MDA-N): > 100 µM (inactive) | GI50 (U-251): > 100 µM (inactive) | GI50 (SK-MEL-2): > 100 µM (inactive) | GI50 (NCI-H23): > 100 µM (inactive) | GI50 (OVCAR-3): > 100 µM (inactive) | GI50 (NCI-H226): > 100 µM (inactive) | GI50 (COLO 205): > 100 µM (inactive) | GI50 (SK-OV-3): > 100 µM (inactive) | GI50 (LOX IMVI): > 100 µM (inactive) | GI50 (CCRF-CEM): > 100 µM (inactive) | GI50 (PC-3): > 100 µM (inactive) | GI50 (A549): > 100 µM (inactive) | GI50 (HCT-116): > 100 µM (inactive) | GI50 (RPMI-8226): > 100 µM (inactive) | GI50 (Malme-3M): > 100 µM (inactive) | GI50 (UACC-62): > 100 µM (inactive) | GI50 (SW-620): > 100 µM (inactive) | GI50 (IGROV-1): > 100 µM (inactive) | GI50 (NCI-H460): > 100 µM (inactive) | GI50 (MDA-MB-231): > 100 µM (inactive) | GI50 (ACHN): > 100 µM (inactive) | GI50 (MDA-MB-435): > 100 µM (inactive) | GI50 (EKVX): > 100 µM (inactive) | GI50 (M14): > 100 µM (inactive) | GI50 (K562): > 100 µM (inactive) | GI50 (SN12C): > 100 µM (inactive) | GI50 (RXF 393): > 100 µM (inactive) | GI50 (KM12): > 100 µM (inactive) | GI50 (HT-29): > 100 µM (inactive) | GI50 (HL-60): > 100 µM (inactive) | GI50 (SNB-75): > 100 µM (inactive) | GI50 (HCC 2998): > 100 µM (inactive) | GI50 (786-0): > 100 µM (inactive) | GI50 (OVCAR-8): > 100 µM (inactive) | GI50 (TK-10): > 100 µM (inactive) | GI50 (SF-539): > 100 µM (inactive) | GI50 (BT-549): > 100 µM (inactive) | GI50 (UO-31): > 100 µM (inactive) | GI50 (SF-295): > 100 µM (inactive) | GI50 (SK-MEL-28): > 100 µM (inactive) | GI50 (SR): > 100 µM (inactive) | GI50 (SF-268): > 100 µM (inactive) | GI50 (SK-MEL-5): > 100 µM (inactive) | GI50 (Hs-578T): > 100 µM (inactive) | GI50 (HOP-62): > 100 µM (inactive) | GI50 (NCI/ADR-RES): > 100 µM (inactive) | GI50 (DU-145): > 100 µM (inactive) | GI50 (SNB-19): > 100 µM (inactive) | GI50 (HCT-15): > 100 µM | GI50 (UACC-257): > 100 µM (inactive) | GI50 (T47D): > 100 µM (inactive) | GI50 (MCF7): > 100 µM (inactive) | GI50 (MOLT-4): > 100 µM (inactive) | GI50 (OVCAR-4): > 100 µM (inactive) | GI50 (OVCAR-5): > 100 µM (inactive)
